Measured values taken from patent US10562842B2, “Use of polyaminoisoprenyl derivatives in antibiotic or antiseptic treatment” (UNIVERSITE D'AIX-MARSEILLE, priority 2011, dated 2020).

Assays:
[1] = system: Salmonella Thyphimurium MDR BN10055; assay: MIC of antibiotics ± test compound (MIC ratio), micro-broth dilution; assay type: cell-based, Salmonella enterica serovar Typhimurium; conditions: for MIC ratio (*) on BN10055 Chl: chloramphenicol; for MIC ratio (*) on BN10055 Dox: doxycycline; for MIC ratio (*) on BN10055 Nal: nalidixic acid
Description: (§1) The Enterobacter aerogenes Ea289 strain is a Kans derivative of the MDR clinical isolate Ea27, the acrB mutant, EaEP294, was constructed from Ea289. Multidrug-resistant Salmonella enterica serovar Typhimurium DT104 strains (BN10055) was isolated from cattle in France, the isogenic acrB derivative mutant, BN10055ΔacrB, was constructed from BN10055. Strains were maintained at −80° C. in 25% (v/v) glycerol for cryoprotection. Bacteria were routinely grown in Mueller-Hinton (MH) broth at 37° C.
(§2) Susceptibilities to antibiotics and compounds were determined in microplates by broth dilution method, as previously described. Minimal Inhibitory Concentrations (MICs) were determined with an inoculum of 10^6 CFU in 200 μL of MH broth containing two-fold serial dilutions of each drug. […] All MIC determinations were repeated at least three times in independent experiments.
(§3) […] All MIC determinations were repeated at least three times in independent experiments. The MIC ratio corresponds to the ratio of the MIC of an antibiotic alone to the MIC of the same antibiotic in the presence of the tested compound (at MIC/4).
(§4) For reminder, the MIC ratio corresponds to the ratio of the MIC of the assessed antibiotic alone to the MIC of the same antibiotic in the presence of the tested compound (at MIC/4).

[2] = system: Enterobacter aerogenes MDR Ea289; assay: as above; assay type: cell-based
Description: The process consists of treating the MDR bacteria with the compounds of the invention in the presence of antibiotics.
as §2
The MICs of chloramphenicol±test compounds (MIC/4) were determined by the micro-broth dilution method (9). All MIC determinations were repeated at least three times in independent experiments. The MIC ratio corresponds to the ratio of the MIC of an antibiotic alone to the MIC of the same antibiotic in the presence of the tested compound (at MIC/4).
The compounds listed in Table 2 were tested for their ability to decrease the chloramphenicol MIC of Ea289, an Enterobacter aerogenes MDR strain (1). Each compound was first tested at MIC/4. […] All MIC determinations were repeated at least three times in independent experiments.
as §4

[3] = system: Enterobacter aerogenes MDR Ea289; assay: as above; assay type: cell-based; conditions: compound at MIC/4, Set 2; for MIC ratio (*) on Ea289 Dox: doxycycline; for MIC ratio (*) on Ea289 Nal: nalidixic acid
BN10055ΔacrB = assay: as above; assay type: cell-based, Salmonella enterica serovar Typhimurium; conditions: compound at MIC/4, Set 1
Description: as §1, §2, §3, §4

CHO cells = assay: Toxicity on CHO cultured cells; assay type: cell-based; conditions: Cricetulus griseus; killing of 50% of the CHO cells after 24 hours of incubation
Description: The toxicity of each compound was determined on CHO cultured cells. Incubation of CHO cells was performed with serial dilution of compounds. The compounds are either solubilized in DMSO or in PBS. The IC50 corresponds to the concentration of compounds leading to a killing of 50% of the CHO cells after 24 hours of incubation.

Ea289ΔacrB (Ea294) = assay: MIC of antibiotics ± test compound (MIC ratio), micro-broth dilution; assay type: cell-based, Enterobacter aerogenes; conditions: compound at MIC/4, Set 1
Description: as §1, §2, §3, §4

[4] = system: strain IV2571223 - Escherichia coli pig (sensible); assay: MIC of antibiotics in the presence and absence of test compound, veterinary strains; assay type: cell-based; set-up: MIC for strain IV2571223, Doxycycline in the presence of test compound: unit not given beside the values; conditions: compound at the Concentration (μM) (2-50)
Description: (§5) For each strain and each antibiotic, the MICs were determined in the presence and in the absence of one test compound.

[5] = system: strain IV2570533 - Escherichia coli cattle (resistant); assay: as above; assay type: cell-based; conditions: compound at the Concentration (μM) (0.896-12.6)
Description: as §5

[6] = system: strain IV2570060 - Escherichia coli cattle (sensible); assay: as above; assay type: cell-based; conditions: compound at the Concentration (μM) (4-50)
Description: as §5

[7] = system: strain IV2571418 - Escherichia coli pig (resistant); assay: as above; assay type: cell-based; set-up: MIC for strain IV2571418, Doxycycline in the presence of test compound: unit not given beside the values; conditions: compound at the Concentration (μM) (4-50)
Description: as §5

[8] = chloramphenicol, compound at MIC/4, Set 2
[9] = erythromycin, compound at MIC/4, Set 1
[10] = doxycycline and nalidixic acid, Set 2

Row | SMILES | MIC ratio (*) on BN10055 Chl ([1]; compound at MIC/4, Set 2) | MIC ratio (*) on BN10055 Dox ([1]; compound at MIC/4, Set 2) | MIC ratio (*) on BN10055 Nal ([1]; compound at MIC/4, Set 2) | MIC ratio (*) on Ea289 Chl [2, 8] | MIC ratio (*) on Ea289 Dox [3] | MIC ratio (*) on Ea289 Nal [3] | further results
1 | CCN(CC)CCNCCCNC/C=C(\C)CCC=C(C)C [Compound 21] | 16 | 32 | 64 | 8-16 | 32 | 8 | 
2 | CC(C)=CCC/C(C)=C/CC/C(C)=C/CNCCCN1CCOCC1 [Compound 23] | 8 | 16 | 32 | 8 | 32 | 8 | 
3 | CC(C)=CCC/C(C)=C/CC/C(C)=C/CNCCCN(CCCN)CCCN [Compound 9, {3-[Bis-(3-amino-propyl)-amino]-propyl}-(3,7,11-trimethyl-dodeca-2,6,10-trienyl)-amine] | 16 | 8 | 128 | 32 | 16 | 16 | MIC ratio(*) on BN10055ΔacrB Chl (BN10055ΔacrB; chloramphenicol): 2; MIC ratio(*) on BN10055ΔacrB Ery (BN10055ΔacrB; erythromycin): 8; MIC ratio(*) on BN10055ΔacrB Nal (BN10055ΔacrB; nalidixic acid): 8; MIC ratio (*) on BN10055 Chl ([1]; compound at MIC/4, Set 1): 16; MIC ratio(*) on BN10055 Ery [1, 9]: 32; MIC ratio (*) on BN10055 Nal ([1]; compound at MIC/4, Set 1): 128; Effective concentration (mM) for a MIC ratio of chloramphenicol ≥ 8 on Ea289 ([2]; chloramphenicol): 0.0078 mM; efficient concentration, times lower than the control PAβN ([2]; chloramphenicol MIC ratio of 8 on Ea289): about 4.9 times; activity, effective concentration compared with PAβN to reach a MIC ratio of 8 ([2]; chloramphenicol on Ea289): strong activity; MIC ratio (*) on Ea289 Chl ([2]; chloramphenicol, compound at MIC/4, Set 1): 32; MIC ratio(*) on Ea289 Ery [2, 9]: 16-32; MIC ratio (*) on Ea289 Nal ([2]; nalidixic acid, compound at MIC/4, Set 1): 16; IC50 (CHO cells): 0.132 mM; MIC ratio(*) on Ea289ΔacrB Chl (Ea289ΔacrB (Ea294); chloramphenicol): 4; MIC ratio(*) on Ea289ΔacrB Ery (Ea289ΔacrB (Ea294); erythromycin): 8; MIC ratio(*) on Ea289ΔacrB Nal (Ea289ΔacrB (Ea294); nalidixic acid): 128
4 | CC(C)=CCC/C(C)=C/CC/C(C)=C/CNCCCN1CCN(CCCN)CC1 [Compound 15, {3-[4-(3-Amino-propyl)-piperazin-1-yl]-propyl}-((2E,6E)-3,7,11-trimethyl-dodeca-2,6,10-trienyl)-amine] | 8 | 32 | 64 | 8 | 128 | 32 | MIC for strain IV2571223, Doxycycline in the presence of test compound [4]: 0.0625; MIC for strain IV2571223, Tylosine in the presence of test compound [4]: 32; MIC for strain IV2570533, Doxycycline in the presence of test compound [5]: 2; MIC for strain IV2570533, Tylosine in the presence of test compound [5]: 32; MIC for strain IV2570060, Doxycycline in the presence of test compound [6]: 0.125; MIC for strain IV2570060, Tylosine in the presence of test compound [6]: 32; MIC for strain IV2571418, Doxycycline in the presence of test compound [7]: 4; MIC for strain IV2571418, Tylosine in the presence of test compound [7]: 32
5 | CC(C)=CCC/C(C)=C/CC/C(C)=C/CNCCNCCNCCNCCNCCN [Compound 35, [2-(2-{2-[2-(2-Amino-ethylamino)-ethylamino]-ethylamino}-ethylamino)-ethyl]-(3,7,11-trimethyl-dodeca-2,6,10-trienyl)-amine] |  |  |  |  |  |  | MICs for doxycycline and nalidixic acid, BN100055 [1, 10]: > 8; MIC for strain IV2571223, Doxycycline in the presence of test compound [4]: 0.0625; MIC for strain IV2571223, Tylosine in the presence of test compound [4]: 32; MIC for strain IV2570533, Doxycycline in the presence of test compound [5]: 1; MIC for strain IV2570533, Tylosine in the presence of test compound [5]: 4; MIC for strain IV2570060, Doxycycline in the presence of test compound [6]: 0.0625; MIC for strain IV2570060, Tylosine in the presence of test compound [6]: 8; MICs for doxycycline and nalidixic acid, Ea289 [2, 10]: > 8; MIC for strain IV2571418, Doxycycline in the presence of test compound [7]: 2; MIC for strain IV2571418, Tylosine in the presence of test compound [7]: 8
6 | CC(C)=CCC/C(C)=C/CC/C(C)=C/CNCCCCCN [Compound 18] | 4-8 | 16 | 16 | 8-16 | 64 | 8 | 
7 | CC(C)=CCC/C(C)=C/CNCCCN(C)CCCN [Compound 13, {3-[(3-Amino-propyl)-methyl-amino]-propyl}-((E)-3,7-dimethyl-octa-2,6-dienyl)-amine] | 8-16 | 16 | 32 | 16 | 16 | 8 | 
